We go through 32 molecules from ChEMBL document CHEMBL1150436 (Bioorg Med Chem Lett, 1995).

In test [1] the target is T1, 5-hydroxytryptamine receptor 1A (Rattus norvegicus, UniProt P19327).
T1 sequence (P19327 whole entry): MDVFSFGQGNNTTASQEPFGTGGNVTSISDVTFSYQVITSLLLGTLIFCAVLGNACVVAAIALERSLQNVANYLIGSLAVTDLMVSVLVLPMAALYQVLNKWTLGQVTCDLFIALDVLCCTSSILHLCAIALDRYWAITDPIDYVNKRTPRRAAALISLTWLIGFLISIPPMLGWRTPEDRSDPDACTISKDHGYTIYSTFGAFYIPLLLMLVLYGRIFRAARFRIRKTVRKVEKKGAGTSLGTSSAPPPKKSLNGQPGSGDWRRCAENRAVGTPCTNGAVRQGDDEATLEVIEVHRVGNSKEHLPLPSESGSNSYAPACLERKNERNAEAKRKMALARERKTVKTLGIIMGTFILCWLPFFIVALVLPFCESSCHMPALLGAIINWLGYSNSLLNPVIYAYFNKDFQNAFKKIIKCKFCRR
Briefly: Ability to displace [3H]-8-OH-DPAT from serotonergic 5-hydroxytryptamine 1A receptor.

The target of test [2] is T2, Serotonin 2 (5-HT2) receptor (Rattus norvegicus, UniProt P30994+P08909+P14842). Briefly: Ability to displace [3H]ketanserin from serotonergic 5-hydroxytryptamine 2 receptor. The test is classed as protein assay.
The target of test [3] is T3, D(2) dopamine receptor (Rattus norvegicus, UniProt P61169). The test can be described thus: Ability to displace [3H]spiperone from D2 dopamine receptor isolated from the striata of male Wistar rats.
T3 sequence (P61169 whole entry): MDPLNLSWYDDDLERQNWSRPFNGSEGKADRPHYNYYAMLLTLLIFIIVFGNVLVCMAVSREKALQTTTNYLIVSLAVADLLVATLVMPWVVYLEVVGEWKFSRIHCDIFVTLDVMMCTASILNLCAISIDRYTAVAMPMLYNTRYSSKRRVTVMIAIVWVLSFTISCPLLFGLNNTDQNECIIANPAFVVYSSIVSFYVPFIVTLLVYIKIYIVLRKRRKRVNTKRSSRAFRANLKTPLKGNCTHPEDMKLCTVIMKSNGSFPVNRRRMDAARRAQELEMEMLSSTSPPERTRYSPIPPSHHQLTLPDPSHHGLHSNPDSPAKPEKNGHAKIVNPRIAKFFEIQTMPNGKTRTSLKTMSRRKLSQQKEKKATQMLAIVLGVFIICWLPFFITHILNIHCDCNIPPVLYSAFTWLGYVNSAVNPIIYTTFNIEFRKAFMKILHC
The target in test [4] is T1, 5-hydroxytryptamine receptor 1A. Briefly: Compound was evaluated for its ability to displace [3H]8-OH-DPAT from serotonergic 5-hydroxytryptamine 1A receptor.
Test [5] has as its target T2, Serotonin 2 (5-HT2) receptor. Briefly: Compound was evaluated for its ability to displace [3H]ketanserin from serotonergic 5-hydroxytryptamine 2 receptor. The test is classed as protein assay.
The target in test [6] is T3, D(2) dopamine receptor. Briefly: Compound was evaluated for its ability to displace [3H]spiperone from D2 dopamine receptor isolated from the striata of male Wistar rats.

Take `CCCCN1CCC[C@@H]1CNC(=O)c1cc(SC)cc2c1OCCN2C`: the values for the Ki (in test [1]; in test [2]; at D(2) dopamine receptor [3]) were 120 nM, 22 nM and 17 nM, respectively.

Take `CN1CCOc2c(C(=O)NC[C@@H]3CCCN3Cc3ccccc3)cc(Cl)cc21`: the Ki was found to be 220 nM in test [1], 420 nM in test [2] and 310 nM on D(2) dopamine receptor [3].

Turning to `CCCCCCCCCN1CCC[C@@H]1CNC(=O)c1cc(Cl)cc2c1OCC(=O)N2C`, the Ki (in test [1]; in test [2]; on D(2) dopamine receptor [3]) was greater than 1000 nM in each case.

With `CCN1CCC[C@@H]1CNC(=O)c1cc(Cl)cc2c1OCC2`, the Ki (in test [1]; in test [2]; at D(2) dopamine receptor [3]) was greater than 1000 nM each time.

With `CCN1CCC[C@H]1CNC(=O)c1cc(Cl)cc2c1OCC2`, the Ki in test [1] is greater than 1000 nM; in test [2] it was greater than 1000 nM; at D(2) dopamine receptor [3], 6.5 nM.

On to `CCN1CCC[C@H]1CNC(=O)c1cc(Cl)cc2c1OCCN2C`, for which the Ki in test [1] is greater than 1000 nM; in test [2] it was greater than 1000 nM; at D(2) dopamine receptor [3], 16 nM.

On to `CCCCCCCCCN1CCC[C@@H]1CNC(=O)c1cc(S(N)(=O)=O)ccc1OC`, for which the results for the inhibitory constant (Ki) (in test [1]; in test [2]; on D(2) dopamine receptor [3]) were 16 nM, 3700 nM and 92 nM, respectively.

With `CCCCN1CCC[C@H]1CNC(=O)c1cc(SC)cc2c1OCCN2C`, the results for the inhibition constant (Ki) (in test [1]; in test [2]; at D(2) dopamine receptor [3]) were 19 nM, 2100 nM and 3.6 nM, respectively.

Take `CCCCCCCCCN1CCC[C@H]1CNC(=O)c1cc(Cl)cc2c1OCC2`: the results for the Ki (in test [1]; in test [2]; on D(2) dopamine receptor [3]) were 570 nM, greater than 1000 nM and greater than 1000 nM, respectively.

On to `CCCCN1CCC[C@@H]1CNC(=O)c1cc(Cl)cc2c1OCC2`, for which the Ki is 330 nM in test [1] and 400 nM in test [2].

Turning to `CCCCN1CCCC1CNC(=O)c1cccc2c1OCCN2C` (centres undefined), the results for the Ki (in test [4]; in test [5]; at D(2) dopamine receptor [6]) were 170 nM, 2200 nM and 270 nM, respectively.

As to `CN1CCOc2c(C(=O)NC[C@H]3CCCN3Cc3ccccc3)cc(Cl)cc21`, the figures for the Ki (in test [1]; in test [2]; on D(2) dopamine receptor [3]) were 21 nM, 99 nM and 210 nM, respectively.

Regarding `CCN1CCC[C@@H]1CNC(=O)c1cc(Cl)cc2c1OCCN2C`, the Ki (in test [1]; in test [2]; at D(2) dopamine receptor [3]) was greater than 1000 nM each time.

`CCCCN1CCC[C@H]1CNC(=O)c1cc(Cl)cc2c1OCC2`: the Ki in test [1] was 18 nM; in test [2], 3300 nM.

For `CCCCCCCCCN1CCC[C@@H]1CNC(=O)c1cc(Cl)cc2c1OCCN2C`, the inhibition constant Ki in test [4] is greater than 1000 nM; in test [5] it was greater than 1000 nM; at D(2) dopamine receptor [6], 690 nM.

As for `CSc1cc(C(=O)NC[C@@H]2CCCN2Cc2ccccc2)c2c(c1)N(C)CCO2`, the Ki in test [1] was found to be 880 nM; in test [2], 550 nM; on D(2) dopamine receptor [3], 270 nM.

For `CCCCN1CCC[C@H]1CNC(=O)c1cc(S(N)(=O)=O)ccc1OC`, the Ki in test [4] was 1200 nM; in test [5], greater than 1000 nM.

Consider `CSc1cc(C(=O)NC[C@H]2CCCN2Cc2ccccc2)c2c(c1)N(C)CCO2`, for which the figures for the inhibition constant (Ki) (in test [1]; in test [2]; at D(2) dopamine receptor [3]) were 17 nM, 27 nM and 4.2 nM, respectively.

Regarding `CCCCN1CCC[C@@H]1CNC(=O)c1cc(S(N)(=O)=O)ccc1OC`, the inhibition constant (Ki) in test [4] was 4500 nM; in test [5], greater than 1000 nM.

Turning to `CCCCCCCCCN1CCC[C@@H]1CNC(=O)c1cc(Cl)cc2c1OCC2`, the Ki in test [1] is 330 nM; in test [2], greater than 1000 nM; on D(2) dopamine receptor [3] it was 84 nM.

On to `CCN1CCC[C@@H]1CNC(=O)c1cc(Cl)cc2c1OCC(=O)N2C`, for which the Ki (in test [1]; in test [2]; at D(2) dopamine receptor [3]) was greater than 1000 nM each time.

In the case of `CCN1CCC[C@H]1CNC(=O)c1cc(Cl)cc2c1OCC(=O)N2C`, the Ki (in test [1]; in test [2]; at D(2) dopamine receptor [3]) was greater than 1000 nM in each case.

For `CCCCN1CCC[C@@H]1CNC(=O)c1cc(Cl)cc2c1OCCN2C`, the Ki was found to be 430 nM in test [4] and 630 nM at D(2) dopamine receptor [6].

As for `CN1CCOc2c(C(=O)NC[C@H]3CCCN3CCc3ccccc3)cc(Cl)cc21`, the Ki in test [1] was 35 nM; in test [2] it was 1700 nM; on D(2) dopamine receptor [3], 57 nM.

With `CCCCN1CCCC1CNC(=O)c1cc(S(N)(=O)=O)cc2c1OCCN2C` (centres undefined), the Ki in test [4] was 450 nM; in test [5] it was 3000 nM; at D(2) dopamine receptor [6] it was 670 nM.

For the molecule `CCCCCCCCCN1CCC[C@H]1CNC(=O)c1cc(S(N)(=O)=O)ccc1OC`, the Ki is 81 nM in test [1], 2300 nM in test [2] and 180 nM on D(2) dopamine receptor [3].

For the molecule `CN1CCOc2c(C(=O)NC[C@@H]3CCCN3CCc3ccccc3)cc(Cl)cc21`, the Ki is 10 nM in test [1] and 800 nM on D(2) dopamine receptor [3].

`CCCCN1CCC[C@@H]1CNC(=O)c1cc(Cl)cc2c1OCC(=O)N2C`: the inhibition constant (Ki) (in test [1]; in test [2]; on D(2) dopamine receptor [3]) was greater than 1000 nM throughout.

On to `CCCCN1CCC[C@H]1CNC(=O)c1cc(Cl)cc2c1OCCN2C`, for which the Ki was 34 nM in test [4] and 12 nM at D(2) dopamine receptor [6].

As for `CCCCCCCCCN1CCC[C@H]1CNC(=O)c1cc(Cl)cc2c1OCCN2C`, the Ki in test [4] was 280 nM; in test [5], greater than 1000 nM; at D(2) dopamine receptor [6], 750 nM.

For `CCCCCCCCCN1CCC[C@H]1CNC(=O)c1cc(Cl)cc2c1OCC(=O)N2C`, the Ki (in test [1]; in test [2]; at D(2) dopamine receptor [3]) was greater than 1000 nM in each case.

Take `CCCCN1CCC[C@H]1CNC(=O)c1cc(Cl)cc2c1OCC(=O)N2C`: the inhibitory constant (Ki) (in test [1]; in test [2]; at D(2) dopamine receptor [3]) was greater than 1000 nM throughout.

For orientation: Ki means the dissociation constant of the complex between target and ligand, obtained from inhibition or displacement. A low value points to tighter binding.
